pIC50, pKi: −log10 of the molar value.
How the values were obtained:
[1] = tested on: NFAT-dependent reporter gene (3×NFAT-Luc) in Jurkat cells; test: 3×NFAT-Luc luciferase reporter in transfected Jurkat cells; type: cell-based, human; conditions: GFP fusion expressed in Jurkat cells; PMA and ionomycin 6 hours
Method: Twenty-four hours after transfection, cells were left unstimulated, stimulated for 6 hours with 20 nM phorbol 12-myristate 13-acetate (PMA) and 1 μM ionomycin, or stimulated for 6 hours with 0.2 μg/ml immobilized anti-CD3 (HIT3a, Pharmingen) and 0.5 μg/ml soluble anti-CD28 (CD28.2, Pharmingen). CsA was added 30 min before the stimuli. Luciferase activity in cell lysates was measured using a luciferase assay system (Promega) and was normalized to the concentration of hGH in the cell culture medium determined with a radioimmunometric assay kit (Hybritech).
In the right panel are data from Jurkat cells that had been cotransfected with a 3×NFAT-Luc reporter plasmid and with expression plasmids encoding murine NFAT1, human NFAT2, or human NFAT4 as indicated. Twenty-four hours after transfection, cells were left unstimulated (Unstimulated; open bars) or were stimulated for 6 hours with PMA and ionomycin (PMA+iono; solid bars), cell lysates were prepared, and luciferase activity attributable to endogenous NFAT (Endog.) or to overexpressed NFAT proteins was measured.
Twenty-four hours after transfection, cells were left untreated (open bars) or were stimulated for 6 hours with PMA and ionomycin (solid bars).

calcineurin [2] = molecular target: T1, calcineurin (Homo sapiens, UniProt Q08209); test: dephosphorylation of 32P-RII phosphopeptide by calcineurin; type: biochemical; conditions: 32P-RII phosphopeptide 100 μM, calcineurin 100 nM; peptides 30 μM to 400 μM; FK506/FKBP12 10 μM/10 μM
Method: The dephosphorylation reaction was allowed to proceed for 30 min at 30° C. after which the reaction was stopped by addition of excess 0.1% trichloroacetic acid, substrate peptide was removed by adsorption onto a cation exchange resin (AG50W; BioRad Laboratories, Hercules, Calif.), and released ^32P label in the supernatant was measured in a liquid scintillation counter.

[3] = molecular target: T2, dephosphorylation of NFAT1 by calcineurin (Homo sapiens, UniProt Q08209); test: dephosphorylation of HA-NFAT1(1-460)-GFP in HEK-293 cytosolic extracts by calcineurin/calmodulin; type: biochemical; conditions: wild type 13-mer 100 μM or 400 μM; mutant 400 μM; calcineurin/calmodulin 100 nM to 900 nM
Method: (§1) The HA-tagged N-terminal domains of NFAT1 and NFAT4 were expressed as the fusion proteins HA-NFAT1(1-460)-GFP and HA-NFAT4(1-407)-GFP in HEK-293 cells. […] Dephosphorylation was allowed to proceed for 30 min at 30° C., and samples were analyzed by SDS-PAGE and Western blotting with anti-HA antibody.

[4] = molecular target: T2, dephosphorylation of NFAT1 by calcineurin; test: in vitro dephosphorylation of NFAT1(1-460)-GFP by calcineurin in HeLa cytosolic extracts, Western blotting; type: biochemical
Method: Samples were resolved by SDS-PAGE and dephosphorylation was assessed with anti-HA antibody 12CA5. […] Slightly higher concentrations of the peptides were required to inhibit the in vitro dephosphorylation than were required to inhibit NFAT-calcineurin binding, presumably due to some degradation of the peptides by enzymes present in the cell extracts.

[5] = molecular target: T3, dephosphorylation of NFAT by calcineurin (Homo sapiens, UniProt Q08209); test: calcineurin-mediated dephosphorylation of HA-NFAT1(1-460)-GFP in HeLa cell lysates; type: biochemical; conditions: 200 nM calcineurin, 600 nM calmodulin, 30 min at 30 C.; peptide amounts as in FIG. 5B
Method: The phosphorylation status of NFAT was evaluated by SDS-polyacrylamide gel electrophoresis and Western blotting with anti-HA antibody 12CA5.

[6] = molecular target: calcineurin binding to GST-NFAT1 (Homo sapiens, UniProt Q08209); test: binding of activated calcineurin to GST-NFAT1(1-415), glutathione-Sepharose collection and Western blotting
[7] = molecular target: dephosphorylation of NFAT4 by calcineurin (Homo sapiens, UniProt Q08209); test: dephosphorylation of HA-NFAT4(1-407)-GFP in HEK-293 cytosolic extracts by calcineurin/calmodulin; type: biochemical; conditions: wild type 13-mer 100 μM or 400 μM; mutant 400 μM; calcineurin/calmodulin 100 nM to 900 nM
Method: as §1

calcineurin [8] = molecular target: calcineurin (Homo sapiens, UniProt Q08209, L343A/M347D/Y341S); test: 1H NMR titration spectroscopy binding experiments; conditions: 10 μM compound, 20 μM calcineurin, 25° C., buffered D2O
Method: T2-filtered ^1H NMR spectra were obtained on a Bruker Avance 600 instrument with CryoPhobe using low-power presaturation of residual water. Preacquisition delays included up to five spin echos to suppress fast-relaxing broad protein resonances and were times to yield in-phase signals for J-coupled spins. Chemical shifts were referenced to internal standard 5 μM 2,2-dimethylsilapentane-5-sulfonic acid (DSS).

[9] = molecular target: T4, recombinant human calcineurin catalytic domain, calcineurin(2-347) (Homo sapiens, UniProt Q08209, L343A/M347D/Y341S); test: fluorescence polarization competition assay, displacement of OG-VIVIT from calcineurin; type: binding; conditions: for displacement of OG-VIVIT from calcineurin: at high concentrations, 1 μM calcineurin, 60 nM OG-VIVIT; for pIC50: calcineurin-VIVIT peptide interaction, read-out: Estimated IC50
T4 construct: GST (N, cleaved yes); made in house; host or cells: E. coli strain DH5α
Method: Samples were analyzed as described in the preceding paragraph, and the resulting polarization data were plotted against the concentration of unlabelled VIVIT peptide, as shown in FIG. 8B.
The library stocks were dissolved at a nominal concentration of 10 mM in DMSO, and formatted for convenient robotic transfer on 384-well plates at the Institute of Chemistry and Cell Biology, Harvard Medical School. To initiate the competition assay, 40 nl volumes were pin-transferred from each well of a library stock plate to the corresponding wells of an assay plate, utilizing a robotic device. After a minimum 10 min incubation at room temperature to allow the binding to reach equilibrium, fluorescence polarization data were collected employing an Analyst plate reader (Molecular Devices).
Stocks of candidate inhibitor compounds and their structural analogues were purchased from ChemBridge or Asinex. The structure and purity of individual compounds were verified by ^1H NMR, mass spectrometry, or thin-layer chromatography. […] INCA1, INCA2, and INCA6 can be represented generally as follows: […]

calcineurin [10] = molecular target: T1, calcineurin; test: calcineurin phosphatase assay with phosphorylated RII peptide, Malachite green detection; type: biochemical; conditions: 100 μM INCA compound or 100 μM VIVIT peptide; 6.8 nM calcineurin, 15 min at 25° C.
[11] = molecular target: T3, dephosphorylation of NFAT by calcineurin; test: in vitro dephosphorylation of NFAT1 in C1.7W2 T cell lysates by recombinant calcineurin; type: biochemical; conditions: 500 nM calcineurin, 600 nM calmodulin, 30 minutes at 30° C.; INCA2 at micromolar concentrations
Method: Dephosphorylation produces a change in mobility that is visible as a shift in the immunostained NFAT band.
Cell lysates were made from C1.7W2 T cells washed in PBS/2 mM EGTA, 10 mM iodoacetamide, collected by centrifugation, and resuspended at 80×10^6 cells/ml in chilled lysis buffer consisting of 10 mM KAc, 2 mM MgAc2, 2 mM EGTA, 100 mM HEPES/NaHEPES pH 7.4, 0.2% NP-40, 10 mM iodoacetamide, 2 mM PMSF, 20 μg/ml aprotinin, and 50 μM leupeptin. After incubation for 10 minutes on wet ice, the nuclei and cell debris were pelleted in a refrigerated microcentrifuge at 4° C. by centrifugation for 5 minutes at 13,500 rpm, and the resulting supernatant recovered with a prechilled pipette tip, rapidly frozen using a dry ice/ethanol bath, and stored at −80° C.
The dephosphorylation reaction was initiated by addition of 0.6 μl lysate per 20 μl reaction.

[12] = molecular target: calcineurin binding to NFAT1 (Homo sapiens, UniProt Q08209); test: 125I-calcineurin binding to GST-NFAT1(1-400) immobilized on glutathione-Sepharose beads; conditions: at concentrations up to 100 μM
calcineurin [13] = molecular target: T1, calcineurin; test: in vitro dephosphorylation of recombinant 32P-labelled RIIα protein by calcineurin; type: biochemical
Method: Dephosphorylation was allowed to proceed during 45 min at 30° C., samples were resolved by SDS-PAGE, and the gel was stained with Coomasie Brilliant Blue, dried, and autoradiographed. A phosphorimager was used to quantitate the level of ^32P in each lane.

calcineurin [14] = molecular target: T1, calcineurin; test: dephosphorylation of GST-Tau protein by calcineurin; type: biochemical
[15] = peptide concentrations in the range from 16 μM to 400 μM, calcineurin 200 nM, calmodulin 600 nM, 30 min at 30° C.

GFP-SPRIEIT: GFP-SPRIEIT fusion protein, expression vector previously described (Aramburu et al 1998)
block of induced luciferase expression, endogenous NFAT [1]: partially blocked

CC[C@H](C)[C@H](NC(=O)[C@H](CCCNC(=N)N)NC(=O)[C@@H]1CCCN1C(=O)[C@H](CO)NC(=O)[C@@H]1CCCN1C(=O)CNC(=O)[C@@H](N)CO)C(=O)N[C@@H](CCC(=O)O)C(=O)N[C@H](C(=O)N[C@H](C(=O)N1CCC[C@H]1C(=O)N[C@@H](CO)C(=O)N[C@@H](Cc1c[nH]cn1)C(=O)O)[C@@H](C)O)[C@@H](C)CC [wild type 13-mer peptide]
inhibition of dephosphorylation of the RII peptide by calcineurin (calcineurin [2]): Neither of the SPRIEITPS peptides inhibited | inhibition of dephosphorylation of HA-NFAT1(1-460)-GFP [3]: inhibited dephosphorylation | inhibition of dephosphorylation of NFAT1 by calcineurin in vitro [4, 15]: inhibited | inhibition of NFAT dephosphorylation [5]: effective | inhibition of the binding of activated calcineurin to GST-NFAT1 ([6]; 200 nM calcineurin, 600 nM calmodulin, 2 mM CaCl2, peptide amounts as in FIG. 5A): inhibited | inhibition of dephosphorylation of HA-NFAT4(1-407)-GFP [7]: inhibited dephosphorylation

CC(=O)C(C(C)=O)C1=C(Cl)C(=O)C(=O)c2c(C(=O)c3ccccc3)coc21 [INCA1]
binding to calcineurin in the absence of VIVIT peptide (calcineurin [8]): direct molecular interaction | pKi [9]: 5.70 to 6.30 | displacement of OG-VIVIT from calcineurin [9]: complete | pIC50 [9]: 6.00

O=C1C(Cl)=C(Cl)C(=NS(=O)(=O)c2ccccc2)c2ccccc21 [INCA2]
binding to calcineurin in the absence of VIVIT peptide (calcineurin [8]): direct molecular interaction | release of free phosphate from RII phosphopeptide (calcineurin [10]): not affected | pKi [9]: 6.30 to 7.00 | displacement of OG-VIVIT from calcineurin [9]: complete | pIC50 [9]: 5.52 | dephosphorylation of NFAT by calcineurin in vitro [11]: blocked

CM2 mutant 26-mer peptide: 26-mer control peptide with R112 to A, E114 to A, T116 to A substitutions and appended tyrosine (KPAGASGPSPAIAIAPSHELMQAGGY) [reference compound]
inhibition of dephosphorylation of HA-NFAT1(1-460)-GFP [3]: little or no inhibition | inhibition of dephosphorylation of NFAT1 by calcineurin in vitro ([4]; only at concentrations above 400 μM): only marginally inhibitory | inhibition of calcineurin binding to GST-NFAT1 ([6]; peptide 100 μM): did not inhibit | inhibition of the NFAT1-calcineurin interaction [12]: did not inhibit | inhibition of dephosphorylation of HA-NFAT4(1-407)-GFP [7]: little or no inhibition

O=P([O-])([O-])OP(=O)([O-])[O-].[Na+].[Na+].[Na+].[Na+] [sodium pyrophosphate, reference compound]
inhibition of dephosphorylation of RIIα protein by control inhibitors (calcineurin [13]; sodium pyrophosphate 20 mM, CsA/cyclophilin […] μM/5 μM, FK506/FKBP12 4 μM/4 μM): efficiently inhibited | inhibition of dephosphorylation of GST-Tau protein by control inhibitors (calcineurin [14]; sodium pyrophosphate 10 mM, CsA/cyclophilin […] μM/5 μM): efficiently inhibited | dephosphorylation of NFAT by calcineurin in vitro [11]: no dephosphorylation

CC[C@H](C)[C@H](NC(=O)[C@H](CCCNC(=N)N)NC(=O)[C@@H]1CCCN1C(=O)[C@H](CO)NC(=O)[C@@H]1CCCN1C(=O)CNC(=O)[C@H](CO)NC(=O)[C@H](C)NC(=O)CNC(=O)[C@H](C)NC(=O)[C@@H]1CCCN1C(=O)[C@@H](N)CCCCN)C(=O)N[C@@H](CCC(=O)O)C(=O)N[C@H](C(=O)N[C@H](C(=O)N1CCC[C@H]1C(=O)N[C@@H](CO)C(=O)N[C@@H](Cc1c[nH]cn1)C(=O)N[C@@H](CCC(=O)O)C(=O)N[C@@H](CC(C)C)C(=O)N[C@@H](CCSC)C(=O)N[C@@H](CCC(N)=O)C(=O)N[C@@H](C)C(=O)NCC(=O)NCC(=O)N[C@@H](Cc1ccc(O)cc1)C(=O)O)[C@@H](C)O)[C@@H](C)CC [wild type 26-mer peptide]
inhibition of dephosphorylation of RIIα protein (calcineurin [13]; peptide 20 μM and 100 μM, calcineurin 200 nM, 45 min at 30° C.): did not inhibit | inhibition at 500 µM (calcineurin [13]; peptide 500 μM): 18% | inhibition of dephosphorylation of the RII peptide by calcineurin (calcineurin [2]): Neither of the SPRIEITPS peptides inhibited | inhibition of dephosphorylation of NFAT1 ([4]; 500 μM peptide): fully inhibited | inhibition of dephosphorylation of NFAT1 by calcineurin in vitro [4, 15]: inhibited | inhibition of dephosphorylation of GST-Tau protein by calcineurin (calcineurin [14]; peptide 20 μM and 100 μM, calcineurin 200 nM, 90 min at 30° C.): not inhibited | inhibition at 500 µM (calcineurin [14]; read-out: inhibition of dephosphorylation of GST-Tau protein by calcineurin, peptide 500 μM): 10%

Reference: patent US20040002117A1 (priority 1998, published 2004)
